Laboratory results taken from ChEMBL document CHEMBL4665900, “Novel Pyrido-pyrimidinones and Pteridinones as Endoribonuclease Inositol Requiring Enzyme 1 (IRE1α) Inhibitors for Treating Cancer” (ACS Med Chem Lett, 2020).

Target: Serine/threonine-protein kinase/endoribonuclease IRE1 (Homo sapiens, UniProt O75460)
Assay: Inhibition of human His-tagged IRE1alpha expressed in Sf9 insect cells preincubated for 1 hr followed by Alexa fluor 647-labeled probe addition and measured after 1 hr by TR-FRET assay

Sequence of Serine/threonine-protein kinase/endoribonuclease IRE1 (O75460 whole entry): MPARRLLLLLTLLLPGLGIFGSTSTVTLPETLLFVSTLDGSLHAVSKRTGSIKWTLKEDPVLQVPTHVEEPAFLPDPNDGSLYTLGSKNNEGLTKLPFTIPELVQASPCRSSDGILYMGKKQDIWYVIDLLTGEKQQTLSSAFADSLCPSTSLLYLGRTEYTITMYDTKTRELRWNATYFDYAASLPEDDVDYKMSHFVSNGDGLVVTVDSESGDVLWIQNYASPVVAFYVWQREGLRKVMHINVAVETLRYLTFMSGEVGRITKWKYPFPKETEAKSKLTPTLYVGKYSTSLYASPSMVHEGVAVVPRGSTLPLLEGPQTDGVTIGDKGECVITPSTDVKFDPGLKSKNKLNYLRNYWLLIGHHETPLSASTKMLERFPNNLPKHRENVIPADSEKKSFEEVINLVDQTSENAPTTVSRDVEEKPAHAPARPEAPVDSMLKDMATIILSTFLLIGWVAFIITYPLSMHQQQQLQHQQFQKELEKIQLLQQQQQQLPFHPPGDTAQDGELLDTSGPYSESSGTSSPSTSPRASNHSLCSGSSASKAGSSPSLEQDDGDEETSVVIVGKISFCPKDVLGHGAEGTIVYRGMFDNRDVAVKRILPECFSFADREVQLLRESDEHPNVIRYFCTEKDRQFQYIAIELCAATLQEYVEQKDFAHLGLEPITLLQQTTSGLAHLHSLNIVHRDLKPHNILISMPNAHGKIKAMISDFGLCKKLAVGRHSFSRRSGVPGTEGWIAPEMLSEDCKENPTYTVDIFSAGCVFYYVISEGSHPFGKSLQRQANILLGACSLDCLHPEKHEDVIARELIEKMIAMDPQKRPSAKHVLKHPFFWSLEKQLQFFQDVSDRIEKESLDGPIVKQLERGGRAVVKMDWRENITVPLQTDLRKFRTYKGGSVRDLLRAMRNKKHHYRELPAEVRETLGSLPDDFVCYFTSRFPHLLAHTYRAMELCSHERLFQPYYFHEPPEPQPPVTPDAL

| IC50 | Compound |
| --- | --- |
| 0.1 nM | CC(C)n1c(=O)c(-c2ccc(NS(=O)(=O)Cc3ccc(C#N)cc3)c(F)c2)nc2cnc(N[C@@H]3CNC[C@@H](F)C3)nc21 |
| 0.05 nM | COCCN(C)[C@H]1CC[C@H](Nc2ncc3cc(-c4ccc(NS(=O)(=O)Cc5ccc(F)cc5)c(F)c4)c(=O)n(C(C)C)c3n2)CC1 |
| 0.08 nM | CC(C)n1c(=O)c(-c2c(F)cc(NS(=O)(=O)Cc3ccc(F)cc3)cc2F)cc2cnc(N[C@H]3CC[C@H](N(C)C)CC3)nc21 |
| 0.1 nM | CC(C)n1c(=O)c(-c2cc(F)c(NS(=O)(=O)CC3(C(F)(F)F)CC3)c(F)c2)nc2cnc(N[C@H]3CC[C@H](N(C)C)CC3)nc21 |
| 0.11 nM | COc1cccc(CS(=O)(=O)Nc2c(F)cc(-c3cc4cnc(N[C@@H]5CNC[C@@H](F)C5)nc4n(C(C)C)c3=O)c(F)c2F)c1 |
| 0.09 nM | Cc1ccc(CS(=O)(=O)Nc2ccc(-c3nc4cnc(N[C@@H]5CNC[C@@H](F)C5)nc4n(C(C)C)c3=O)cc2F)c(C#N)c1 |
